From US20260028552A1, “Cationic Surfactants with Improved pH Stability and Their Use” (Locus Solutions IPCo, LLC, priority 2022, published 2026)
“Also recorded” adds a separate entry of the source.

Columns and labels:
[1] = test system: Staphylococcus aureus (G+); experiment: Microbial kill study (log reduction), Staphylococcus aureus; type: cell-based; conditions: for Log Reduction S. aureus (G+) 100 ppm 0 min / Log Reduction S. aureus (G+) 100 ppm 2 min / Log Reduction S. aureus (G+) 100 ppm 5 min / Activity Reduction S. aureus (G+) 100 ppm 5 min: pH 7, 100 ppm; for Activity Reduction S. aureus (G+) 100 ppm 5 min: day 4 accelerated stability vs day 0
Experimental: (§1) Studies were conducted to determine the antimicrobial capabilities of cationic arginine derivatized surfactants produced according to embodiments of the subject invention.
(§2) The test organisms were a mixture of Gram-negative and Gram-positive organisms, which served to validate the breadth of the spectrum of control and the utility of the technology for common pathogens of public health concern: Pseudomonas aeruginosa (Gram-negative), Staphylococcus aureus (Gram-positive) and Salmonella entericus (Gram-negative).
(§3) Test bacteria were grown at 32° C. for 24-48 hours in tryptic soy broth, then plated at a starting concentration of 10^7. PBS was used for dilution to achieve the desired cell concentration.
(§4) A stock solution of each antimicrobial treatment was created in water, which was then used to create each desired dilution for treatment: 25, 50, 200, 400, 500, 750, 1,000, 1,500, 2,000 and 4,000 ppm, in an appropriate volume of buffer. Buffers included 100 mM of citric acid, ammonium HCL, PBS or sodium bicarbonate.
(§5) The created cell dilution of 10^7 CFU/mL was mixed with either 100 uL to 900 uL of antimicrobial at the appropriate PPM, or 1-9 mL of antimicrobial at the appropriate PPM. The final concentration of the organism was […] once mixed with the antimicrobial.
(§6) The moment the organism was added to the antimicrobial, the timer was started for the desired time period (0, 2, 5, 6 or 10 min). At the end of the timer, the antimicrobial was neutralized, and dilutions were then plated onto TSA plates and incubated for 24-48 hours at 32° C.
(§7) The negative control comprised 0.1 mL from the organism stock plated onto a TSA plate. For the positive control a serial dilution was set up with a starting concentration of 400 PPM quaternary ammonium compound (QAC) and organism. Dilutions were plated at 10^2, 10^3 and 10^4 CFU/mL.
(§8) After 24 to 48 hours of incubation, plates were removed from the incubator and colony numbers were counted.
(§9) The below scale is commonly used in determining a compound's efficacy, where a greater than or equal to 6-fold logarithmic (≥6 log) reduction in less than 10 minutes is needed for disinfection.
(§10) Table 3 summarizes surface tension reduction at 1000 ppm and log reduction of S. aureus and S. enterica at 0 and 10 min. (200 ppm) for four categories of cationic amino alcohol surfactants according to embodiments of the subject invention.
(§11) Tables 4-5 summarize the pH stability over 4 days for a C12 cationic amino alcohol surfactant according to embodiments of the subject invention, LRO (RO), compared with LAE (RE), where LRO was produced through the coupling of a lauroyl chloride substrate and arginine ethyl ester. Log reductions were measured according to the procedures described above in Example 2.

Salmonella enterica (G−) = experiment: Microbial kill study (log reduction), Salmonella enterica; type: cell-based; conditions: for Log Reduction S. enterica (G−) 100 ppm 0 min / Log Reduction S. enterica (G−) 100 ppm 2 min / Log Reduction S. enterica (G−) 100 ppm 5 min / Activity Reduction S. enterica (G−) 100 ppm 5 min: pH 7, 100 ppm; for Activity Reduction S. enterica (G−) 100 ppm 5 min: day 4 accelerated stability vs day 0
Experimental: as §1, §2, §3, §4, §5, §6, §7, §8, §9, §10, §11

[2] = base-catalyzed hydrolysis of the ester, lactam formation; listed as LAE; cited from earlier work
[3] = test system: Pseudomonas aeruginosa (G−); experiment: Microbial kill study (log reduction), Pseudomonas aeruginosa; type: cell-based; conditions: P. aeruginosa
Experimental: as §1, §2, §3, §4
The created cell dilution of 10^7 CFU/mL was mixed with either 100 uL to 900 uL of antimicrobial at the appropriate PPM, or 1-9 mL of antimicrobial at the appropriate PPM. The final concentration of the organism was […] once mixed with the antimicrobial. […]
After 24 to 48 hours of incubation, plates were removed from the incubator and colony numbers were counted. […]

[4] = Surface tension reduction at 1000 ppm; type: physicochemical
Experimental: Table 2 summarizes surface tension reduction at 1000 ppm and log reduction of P. aeruginosa at 0 and 10 min. (200 ppm) for two C12 cationic amino alcohol surfactants according to embodiments of the subject invention, LRO (R) and LKO (K), where LRO was produced through the coupling of a lauroyl chloride substrate and arginine ethyl ester and LKO was produced through the coupling of a lauroyl chloride substrate and lysine ethyl ester.
as §10

CCCCCCCCCCCC(=O)N[C@@H](CCCN=C(N)N)C(=O)OCC [C12 R E, Ethyl lauroyl arginate, reference compound]
Log Reduction S. aureus (G+) 100 ppm 0 min ([1]; Day 0 Stability): 0.00 log
Log Reduction S. aureus (G+) 100 ppm 2 min ([1]; Day 0 Stability): 6.53 log
Log Reduction S. aureus (G+) 100 ppm 5 min ([1]; Day 0 Stability): 6.53 log
Log Reduction S. aureus (G+) 100 ppm 0 min ([1]; Day 4 Accelerated Stability): 0.00 log
Log Reduction S. aureus (G+) 100 ppm 2 min ([1]; Day 4 Accelerated Stability): 0.93 log
Log Reduction S. aureus (G+) 100 ppm 5 min ([1]; Day 4 Accelerated Stability): 1.14 log
Activity Reduction S. aureus (G+) 100 ppm 5 min [1]: 82.54%
Log Reduction S. enterica (G−) 100 ppm 0 min (Salmonella enterica (G−); Day 0 Stability): 0.00 log
Log Reduction S. enterica (G−) 100 ppm 2 min (Salmonella enterica (G−); Day 0 Stability): 6.42 log
Log Reduction S. enterica (G−) 100 ppm 5 min (Salmonella enterica (G−); Day 0 Stability): 6.42 log
Log Reduction S. enterica (G−) 100 ppm 0 min (Salmonella enterica (G−); Day 4 Accelerated Stability): 0.00 log
Log Reduction S. enterica (G−) 100 ppm 2 min (Salmonella enterica (G−); Day 4 Accelerated Stability): 0.00 log
Log Reduction S. enterica (G−) 100 ppm 5 min (Salmonella enterica (G−); Day 4 Accelerated Stability): 0.00 log
Activity Reduction S. enterica (G−) 100 ppm 5 min (Salmonella enterica (G−)): 100.00%
pH stability [2]: decreases at higher pH; also recorded: unstable at pH 7 or above

CCCCCCCCCCCC(=O)NC(CO)CCCNC(=N)N (stereo not drawn) [C12 R O, lauryl argininol alcohol]
Log Reduction S. aureus (G+) 200 ppm 0 min [1]: 0.00 log
Log Reduction S. aureus (G+) 200 ppm 10 min [1]: 6.24 log
Log Reduction S. aureus (G+) 100 ppm 0 min ([1]; Day 0 Stability): 0.00 log
Log Reduction S. aureus (G+) 100 ppm 2 min ([1]; Day 0 Stability): 2.17 log
Log Reduction S. aureus (G+) 100 ppm 5 min ([1]; Day 0 Stability): 6.53 log
Log Reduction S. aureus (G+) 100 ppm 0 min ([1]; Day 4 Accelerated Stability): 0.00 log
Log Reduction S. aureus (G+) 100 ppm 2 min ([1]; Day 4 Accelerated Stability): 0.76 log
Log Reduction S. aureus (G+) 100 ppm 5 min ([1]; Day 4 Accelerated Stability): 6.53 log
Activity Reduction S. aureus (G+) 100 ppm 5 min [1]: 0.00%
Log Reduction 200 ppm 0 min ([3]; 0 min): 1.85 log
Log Reduction 200 ppm 10 min ([3]; 10 min): 6.25 log
Log Reduction S. enterica (G−) 200 ppm 0 min (Salmonella enterica (G−)): 0.00 log
Log Reduction S. enterica (G−) 200 ppm 10 min (Salmonella enterica (G−)): 6.20 log
Log Reduction S. enterica (G−) 100 ppm 0 min (Salmonella enterica (G−); Day 0 Stability): 0.00 log
Log Reduction S. enterica (G−) 100 ppm 2 min (Salmonella enterica (G−); Day 0 Stability): 1.32 log
Log Reduction S. enterica (G−) 100 ppm 5 min (Salmonella enterica (G−); Day 0 Stability): 2.36 log
Log Reduction S. enterica (G−) 100 ppm 0 min (Salmonella enterica (G−); Day 4 Accelerated Stability): 0.00 log
Log Reduction S. enterica (G−) 100 ppm 2 min (Salmonella enterica (G−); Day 4 Accelerated Stability): 0.00 log
Log Reduction S. enterica (G−) 100 ppm 5 min (Salmonella enterica (G−); Day 4 Accelerated Stability): 0.79 log
Activity Reduction S. enterica (G−) 100 ppm 5 min (Salmonella enterica (G−)): 66.53%
Surface Tension 1000 ppm ([4]; 1000 ppm (Table 2)): 23.75 mN/m
Surface Tension 1000 ppm ([4]; 1000 ppm (Table 3)): 23.75 mN/m

linear sophorolipid argininol amide [SLP R O]
Log Reduction S. aureus (G+) 200 ppm 0 min [1]: 0.00 log
Log Reduction S. aureus (G+) 200 ppm 10 min [1]: 2.23 log
Log Reduction S. enterica (G−) 200 ppm 0 min (Salmonella enterica (G−)): 0.00 log
Log Reduction S. enterica (G−) 200 ppm 10 min (Salmonella enterica (G−)): 0.00 log
Surface Tension 1000 ppm ([4]; 1000 ppm (Table 3)): 41.89 mN/m
